Test results as given in ChEMBL document CHEMBL1268885, “Subtype-selective Na(v)1.8 sodium channel blockers: identification of potent, orally active nicotinamide derivatives” (Bioorg Med Chem Lett, 2010).
≈ marks a conversion by molar mass, not a printed value.

Key:
[1] = biological target: T1, P2X2/P2X3 heterotrimeric receptor (Homo sapiens, UniProt P56373+Q9UBL9); experiment: Inhibition of P2X2/3 receptor; format: protein-complex assay
T1 sequence (Q9UBL9 whole entry): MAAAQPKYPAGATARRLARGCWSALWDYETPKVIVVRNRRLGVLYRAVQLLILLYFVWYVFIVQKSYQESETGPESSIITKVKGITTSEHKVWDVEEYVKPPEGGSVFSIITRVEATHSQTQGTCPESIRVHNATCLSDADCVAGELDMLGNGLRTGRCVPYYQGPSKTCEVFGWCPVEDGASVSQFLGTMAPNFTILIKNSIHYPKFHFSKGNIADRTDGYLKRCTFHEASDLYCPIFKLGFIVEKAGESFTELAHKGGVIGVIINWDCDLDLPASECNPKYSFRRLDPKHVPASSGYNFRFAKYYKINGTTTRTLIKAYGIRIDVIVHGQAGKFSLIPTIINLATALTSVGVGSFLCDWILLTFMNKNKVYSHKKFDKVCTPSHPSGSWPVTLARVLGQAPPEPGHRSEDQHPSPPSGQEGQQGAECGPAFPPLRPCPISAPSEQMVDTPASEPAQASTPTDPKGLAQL
T1 sequence (P56373 whole entry): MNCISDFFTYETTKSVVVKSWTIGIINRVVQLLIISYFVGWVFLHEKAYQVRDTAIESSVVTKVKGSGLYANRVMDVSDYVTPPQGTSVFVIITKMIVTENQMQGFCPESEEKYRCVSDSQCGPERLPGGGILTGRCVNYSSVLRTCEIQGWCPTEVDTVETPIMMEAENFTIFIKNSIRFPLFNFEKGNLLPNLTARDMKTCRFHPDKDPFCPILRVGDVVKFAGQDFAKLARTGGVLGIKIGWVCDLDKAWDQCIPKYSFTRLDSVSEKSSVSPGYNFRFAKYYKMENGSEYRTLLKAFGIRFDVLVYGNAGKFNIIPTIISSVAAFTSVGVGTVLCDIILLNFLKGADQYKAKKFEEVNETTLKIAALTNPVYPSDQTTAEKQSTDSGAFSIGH

[2] = Oral bioavailability in rat at 3 mg/kg; format: ADME, organism-based; conditions: in vivo
[3] = biological target: Voltage-dependent N-type calcium channel subunit alpha-1B (Homo sapiens, UniProt Q00975); experiment: Inhibition of CaV2.2
Plasma = experiment: (§1) Plasma protein binding in rat; format: ADME, cell-free
Rattus norvegicus [4] = organism: Rattus norvegicus; experiment: Analgesic activity in rat Chung model of neuropathic pain assessed as decrease in von Frey filament-induced pain; format: functional
[5] = biological target: Sodium channel protein type 10 subunit alpha (Mus musculus, UniProt Q6QIY3); experiment: Inhibition of mouse NaV1.8 by isotopic flux assay
[6] = Ratio of drug level in brain to plasma in rat; format: ADME, cell-free; conditions: read-out: BPR
[7] = Aqueous solubility of the compound; format: physicochemical; conditions: buffer
[8] = Volume of distribution at steady state in rat; format: ADME, organism-based; conditions: in vivo, read-out: Vdss
[9] = biological target: Transient receptor potential cation channel subfamily V member 1 (Homo sapiens, UniProt Q8NER1); experiment: Inhibition of TRPV1
[10] = Plasma clearance in rat; format: ADME, organism-based
[11] = biological target: Sodium channel protein type 10 subunit alpha (Homo sapiens, UniProt Q9Y5Y9); experiment: Inhibition of human NaV1.8 by electrophysiology
[12] = Intrinsic clearance in rat microsomes after 1 hr; format: ADME, Microsome
[13] = biological target: Voltage-gated inwardly rectifying potassium channel KCNH2 (Homo sapiens, UniProt Q12809); experiment: Inhibition of human ERG by Isotopic flux assay
[14] = biological target: Sodium channel protein type 2 subunit alpha (Homo sapiens, UniProt Q99250); experiment: Inhibition of human NaV1.2 by electrophysiology
[15] = biological target: Sodium channel protein type 5 subunit alpha (Homo sapiens, UniProt Q14524); experiment: Inhibition of human NaV1.5 by electrophysiology
[16] = biological target: Voltage-gated potassium channel, KQT; KCNQ2(Kv7.2)/KCNQ3(Kv7.3) (Homo sapiens, UniProt O43525+O43526); experiment: Inhibition of KCNQ2/Q3; format: protein-complex assay
[17] = biological target: Sodium channel protein type 10 subunit alpha (Rattus norvegicus, UniProt Q62968); experiment: Inhibition of tetrodotoxin-resistant NaV1.8 in rat DRG neuron by electrophysiology
[18] = Inhibition of chloride channel at 10 uM
[19] = Cmax in rat; format: ADME, organism-based; conditions: in vivo
Rattus norvegicus [20] = organism: Rattus norvegicus; experiment: Analgesic activity in rat Chung model of neuropathic pain; format: functional
Homo sapiens [21] = organism: Homo sapiens; experiment: Selectivity ratio of IC50 for human NAv1.2 to IC50 for human Nav1.8
Homo sapiens [22] = organism: Homo sapiens; experiment: Selectivity ratio of IC50 for human ERG to IC50 for human Nav1.8
[23] = Intrinsic clearance in human microsomes; format: ADME, Microsome
[24] = as §1; format: ADME, cell-free; conditions: read-out: PPB (converted)
[25] = Inhibition of benzodiazepine receptor at 10 uM

Chain of Sodium channel protein type 10 subunit alpha (Mus musculus, UniProt Q6QIY3) (Q6QIY3 whole entry): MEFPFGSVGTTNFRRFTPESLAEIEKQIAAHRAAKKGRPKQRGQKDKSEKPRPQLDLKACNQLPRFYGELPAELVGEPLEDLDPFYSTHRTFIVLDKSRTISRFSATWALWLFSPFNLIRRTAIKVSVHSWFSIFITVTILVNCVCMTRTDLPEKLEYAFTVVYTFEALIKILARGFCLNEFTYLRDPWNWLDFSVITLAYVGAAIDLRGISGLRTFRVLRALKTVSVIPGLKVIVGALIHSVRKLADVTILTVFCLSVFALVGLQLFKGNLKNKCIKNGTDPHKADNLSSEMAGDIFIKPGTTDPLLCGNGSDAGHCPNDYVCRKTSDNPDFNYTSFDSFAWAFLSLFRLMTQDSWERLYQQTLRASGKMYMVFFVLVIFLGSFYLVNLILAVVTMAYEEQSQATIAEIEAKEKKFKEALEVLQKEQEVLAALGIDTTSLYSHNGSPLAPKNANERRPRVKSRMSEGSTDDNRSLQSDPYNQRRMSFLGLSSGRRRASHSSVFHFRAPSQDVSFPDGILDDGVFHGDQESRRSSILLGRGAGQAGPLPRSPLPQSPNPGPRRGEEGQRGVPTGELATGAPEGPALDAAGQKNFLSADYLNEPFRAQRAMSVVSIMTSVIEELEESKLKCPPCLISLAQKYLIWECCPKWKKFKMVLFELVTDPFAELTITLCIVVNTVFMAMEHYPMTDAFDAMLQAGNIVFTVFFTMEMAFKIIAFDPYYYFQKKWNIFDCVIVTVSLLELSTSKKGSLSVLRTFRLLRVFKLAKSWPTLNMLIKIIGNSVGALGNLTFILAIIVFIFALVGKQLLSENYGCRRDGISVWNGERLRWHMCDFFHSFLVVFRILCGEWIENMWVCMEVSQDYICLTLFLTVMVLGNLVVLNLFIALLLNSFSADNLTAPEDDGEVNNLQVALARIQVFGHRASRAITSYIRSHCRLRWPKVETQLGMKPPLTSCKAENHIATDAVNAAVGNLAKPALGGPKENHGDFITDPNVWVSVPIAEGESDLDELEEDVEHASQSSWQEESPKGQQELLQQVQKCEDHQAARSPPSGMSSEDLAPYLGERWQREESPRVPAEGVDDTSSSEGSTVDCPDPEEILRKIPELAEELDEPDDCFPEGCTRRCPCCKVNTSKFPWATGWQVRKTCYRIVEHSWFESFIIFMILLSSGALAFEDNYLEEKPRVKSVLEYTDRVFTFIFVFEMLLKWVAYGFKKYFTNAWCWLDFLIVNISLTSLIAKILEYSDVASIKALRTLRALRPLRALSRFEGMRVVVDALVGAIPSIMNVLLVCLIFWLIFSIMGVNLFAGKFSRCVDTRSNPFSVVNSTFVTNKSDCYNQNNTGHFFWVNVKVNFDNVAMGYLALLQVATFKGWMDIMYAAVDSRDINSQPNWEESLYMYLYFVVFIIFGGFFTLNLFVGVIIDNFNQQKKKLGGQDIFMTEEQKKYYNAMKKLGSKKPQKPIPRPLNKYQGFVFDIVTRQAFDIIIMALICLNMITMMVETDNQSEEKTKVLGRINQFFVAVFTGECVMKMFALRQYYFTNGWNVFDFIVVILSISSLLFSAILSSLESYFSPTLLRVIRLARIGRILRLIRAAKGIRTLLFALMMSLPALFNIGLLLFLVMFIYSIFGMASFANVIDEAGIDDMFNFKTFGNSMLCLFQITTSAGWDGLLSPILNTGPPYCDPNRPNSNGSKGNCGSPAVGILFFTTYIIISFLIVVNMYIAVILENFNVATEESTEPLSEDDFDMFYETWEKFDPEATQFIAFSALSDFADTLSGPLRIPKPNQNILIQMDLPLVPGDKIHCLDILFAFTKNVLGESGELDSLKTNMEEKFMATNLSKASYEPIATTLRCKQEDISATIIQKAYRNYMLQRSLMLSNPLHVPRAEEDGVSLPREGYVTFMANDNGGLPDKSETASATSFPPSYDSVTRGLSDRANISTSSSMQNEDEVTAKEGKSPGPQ
Chain of Sodium channel protein type 10 subunit alpha (Homo sapiens, UniProt Q9Y5Y9) (Q9Y5Y9 whole entry): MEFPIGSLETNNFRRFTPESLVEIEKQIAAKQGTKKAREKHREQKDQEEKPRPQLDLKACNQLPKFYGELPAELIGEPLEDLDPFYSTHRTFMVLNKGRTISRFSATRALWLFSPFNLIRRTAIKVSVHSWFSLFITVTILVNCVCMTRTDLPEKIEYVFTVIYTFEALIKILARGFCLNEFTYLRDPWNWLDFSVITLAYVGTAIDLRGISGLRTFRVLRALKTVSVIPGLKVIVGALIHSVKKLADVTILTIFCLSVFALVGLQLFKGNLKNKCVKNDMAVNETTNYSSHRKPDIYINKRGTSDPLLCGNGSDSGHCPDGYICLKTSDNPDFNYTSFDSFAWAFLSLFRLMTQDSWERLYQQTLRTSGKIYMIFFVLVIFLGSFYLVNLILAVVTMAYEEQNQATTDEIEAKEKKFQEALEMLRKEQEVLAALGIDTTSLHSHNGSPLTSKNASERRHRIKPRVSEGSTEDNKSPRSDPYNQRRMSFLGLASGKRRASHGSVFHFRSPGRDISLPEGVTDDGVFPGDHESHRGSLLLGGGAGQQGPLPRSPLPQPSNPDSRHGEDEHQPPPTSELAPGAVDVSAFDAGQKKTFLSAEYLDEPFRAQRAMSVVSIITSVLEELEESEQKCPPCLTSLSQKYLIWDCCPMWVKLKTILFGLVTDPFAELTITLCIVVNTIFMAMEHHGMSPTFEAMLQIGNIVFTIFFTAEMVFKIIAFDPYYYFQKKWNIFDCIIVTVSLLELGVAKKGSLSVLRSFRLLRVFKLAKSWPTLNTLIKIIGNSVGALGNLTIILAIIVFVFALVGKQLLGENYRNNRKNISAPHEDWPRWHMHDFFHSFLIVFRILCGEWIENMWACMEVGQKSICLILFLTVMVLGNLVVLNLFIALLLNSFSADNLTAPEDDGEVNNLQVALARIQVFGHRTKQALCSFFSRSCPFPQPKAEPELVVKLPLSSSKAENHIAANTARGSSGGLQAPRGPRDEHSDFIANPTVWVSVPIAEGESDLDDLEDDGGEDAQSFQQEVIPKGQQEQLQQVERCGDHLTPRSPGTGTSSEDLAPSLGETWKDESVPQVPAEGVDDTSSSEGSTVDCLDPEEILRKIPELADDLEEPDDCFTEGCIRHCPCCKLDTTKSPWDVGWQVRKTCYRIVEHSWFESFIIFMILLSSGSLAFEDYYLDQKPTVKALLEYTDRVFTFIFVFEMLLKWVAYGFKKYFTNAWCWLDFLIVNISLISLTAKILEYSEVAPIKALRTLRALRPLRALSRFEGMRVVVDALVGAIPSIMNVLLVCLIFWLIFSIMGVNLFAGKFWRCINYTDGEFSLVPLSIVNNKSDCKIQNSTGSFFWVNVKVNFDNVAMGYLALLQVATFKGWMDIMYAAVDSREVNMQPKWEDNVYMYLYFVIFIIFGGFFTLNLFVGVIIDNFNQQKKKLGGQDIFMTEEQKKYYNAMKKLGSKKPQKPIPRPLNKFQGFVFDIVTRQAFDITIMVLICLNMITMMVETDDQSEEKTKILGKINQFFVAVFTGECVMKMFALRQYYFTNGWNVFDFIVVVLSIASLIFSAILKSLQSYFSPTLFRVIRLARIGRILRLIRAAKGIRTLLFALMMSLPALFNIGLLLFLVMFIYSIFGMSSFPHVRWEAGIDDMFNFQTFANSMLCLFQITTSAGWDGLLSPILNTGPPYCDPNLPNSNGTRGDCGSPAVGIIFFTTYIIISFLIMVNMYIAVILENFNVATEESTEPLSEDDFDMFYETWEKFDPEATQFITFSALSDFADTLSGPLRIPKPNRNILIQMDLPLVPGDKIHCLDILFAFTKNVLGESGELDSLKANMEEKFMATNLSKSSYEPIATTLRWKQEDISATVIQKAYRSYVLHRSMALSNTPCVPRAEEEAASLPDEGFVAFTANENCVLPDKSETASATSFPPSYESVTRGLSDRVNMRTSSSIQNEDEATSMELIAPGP
Chain of Transient receptor potential cation channel subfamily V member 1 (Q8NER1 whole entry): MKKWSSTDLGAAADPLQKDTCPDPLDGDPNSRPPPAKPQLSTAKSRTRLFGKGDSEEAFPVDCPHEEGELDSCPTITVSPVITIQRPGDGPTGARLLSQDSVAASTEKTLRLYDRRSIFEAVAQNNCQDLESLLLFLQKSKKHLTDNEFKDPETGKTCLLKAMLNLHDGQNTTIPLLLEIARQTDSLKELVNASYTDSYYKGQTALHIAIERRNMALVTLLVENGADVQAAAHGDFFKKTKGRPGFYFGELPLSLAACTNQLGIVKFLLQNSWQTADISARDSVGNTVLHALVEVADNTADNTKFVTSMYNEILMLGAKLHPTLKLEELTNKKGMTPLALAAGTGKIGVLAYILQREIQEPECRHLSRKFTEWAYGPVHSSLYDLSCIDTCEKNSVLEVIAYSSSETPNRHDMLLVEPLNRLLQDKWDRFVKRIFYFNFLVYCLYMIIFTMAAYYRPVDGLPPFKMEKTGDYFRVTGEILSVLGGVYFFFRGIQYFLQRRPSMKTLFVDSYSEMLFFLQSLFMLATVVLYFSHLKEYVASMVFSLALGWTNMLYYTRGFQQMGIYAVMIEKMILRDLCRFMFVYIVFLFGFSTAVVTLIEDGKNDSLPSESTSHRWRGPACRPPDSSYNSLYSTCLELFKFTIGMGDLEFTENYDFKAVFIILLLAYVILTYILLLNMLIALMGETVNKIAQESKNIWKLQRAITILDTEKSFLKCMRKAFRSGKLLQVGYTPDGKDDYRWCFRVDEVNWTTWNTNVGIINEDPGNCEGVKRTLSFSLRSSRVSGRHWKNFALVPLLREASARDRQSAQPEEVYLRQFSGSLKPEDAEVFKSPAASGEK

Row | Compound | IC50 [5] | IC50 [11] | IC50 [14] | IC50 [17] | Ratio IC50 (Homo sapiens [21]) | Ratio IC50 (Homo sapiens [22]) | other results
1 | O=C(NCc1cccnc1OCC(F)(F)F)c1cncc(-c2ccc(Cl)cc2)c1 | 87 nM | 3 nM | 2800 nM | 28 nM |  |  | IC50 [1]: > 10000 nM; bioavailability [2]: 95%; IC50 [3]: > 10000 nM; PPB (Plasma): 98.7%; Emax (Rattus norvegicus [4]): 66%; Kp [6]: 1; solubility [7]: 3.1 µg/mL (≈ 7.35 µM); Vd [8]: 2 L/kg; IC50 [9]: > 10000 nM; clearance [10]: 10 mL/min/kg; microsomal CLint [12]: 68 µL/min/mg; IC50 [13]: 19000 nM; IC50 [15]: 4700 nM; IC50 [16]: > 10000 nM; inhibition [18]: > 70%; Cmax [19]: 350 ng/mL; ED50 (Rattus norvegicus [20]): 65 mg/kg
2 | Cc1ccccc1CNC(=O)c1cncc(-c2ccc(Cl)cc2)c1 | < 30 nM | 2 nM | 110 nM | 9 nM |  |  | 
3 | O=C(NCc1ccccc1)c1cncc(-c2ccc(Cl)cc2)c1 | 620 nM | 22 nM | 1900 nM | 85 nM |  |  | 
4 | Cc1cc(C)cc(NC(=O)c2cncc(-c3ccc(Cl)cc3)c2)c1 | 610 nM | 9 nM |  | 87 nM | > 30 | > 30 | 
5 | O=C(NCc1cccnc1N1CCCCC1)c1cncc(-c2ccc(Cl)cc2)c1 | 26 nM | 14 nM | 70 nM | 8 nM |  |  | 
6 | O=C(NCc1ccccc1Cl)c1cncc(-c2ccc(Cl)cc2)c1 | 81 nM | 4 nM | 1200 nM | 66 nM |  |  | 
7 | Cc1cc(C)cc(NC(=O)c2ccc(-c3ccc(OC(F)(F)F)cc3)o2)c1 | 290 nM | 2 nM |  | 130 nM | > 30 | > 30 | 
8 | Cc1cc(C)cc(NC(=O)c2coc(-c3ccc(OC(F)(F)F)cc3)n2)c1 | 1400 nM | 180 nM |  | 2000 nM | > 30 | > 30 | 
9 | O=C(NCc1cccnc1)c1cncc(-c2ccc(Cl)cc2)c1 | 7900 nM |  |  |  |  |  | 
10 | Cc1cc(C)cc(NC(=O)c2cnc(-c3ccc(OC(F)(F)F)cc3)o2)c1 | 340 nM | 280 nM |  | 950 nM | > 30 | > 30 | 
11 | O=C(NCc1ccccc1N1CCCCC1)c1cncc(-c2ccc(Cl)cc2)c1 | < 30 nM | 8 nM | 50 nM | 45 nM |  |  | 
12 | Cc1cc(C)cc(NC(=O)c2nsc(-c3ccc(OC(F)(F)F)cc3)n2)c1 | 280 nM | 8 nM |  | 520 nM | > 30 | > 30 | microsomal CLint [23]: > 300 µL/min/mg; microsomal CLint [12]: > 300 µL/min/mg
13 | Cc1cc(C)cc(NC(=O)c2cncc(-c3ccc(C#N)cc3)c2)c1 | 190 nM | 23 nM |  | 91 nM | > 30 | > 30 | IC50 [1]: > 10000 nM; bioavailability [2]: 17%; IC50 [3]: > 10000 nM; fraction unbound [24]: 0.005; Emax (Rattus norvegicus [4]): 60%; Kp [6]: 1.3; solubility [7]: 1.4 µg/mL (≈ 4.28 µM); Vd [8]: 0.5 L/kg; IC50 [9]: > 10000 nM; clearance [10]: 16.7 mL/min/kg; inhibition [25]: > 70%; microsomal CLint [12]: 270 µL/min/mg; IC50 [13]: 16000 nM; IC50 [15]: > 30000 nM; IC50 [16]: > 10000 nM; Cmax [19]: 740 ng/mL; ED50 (Rattus norvegicus [20]): 72 mg/kg
14 | Cc1ncccc1CNC(=O)c1cncc(-c2ccc(Cl)cc2)c1 | 2600 nM |  |  |  |  |  | 
15 | Cc1cc(C)cc(NC(=O)c2cccc(-c3ccc(OC(F)(F)F)cc3)n2)c1 | 1500 nM | 64 nM |  | 510 nM | > 30 | > 30 | 
16 | Cc1cc(C)cc(NC(=O)c2cncc(-c3ccc(OC(F)(F)F)cc3)n2)c1 | 57 nM | 21 nM |  | 34 nM | > 30 | > 30 | 
17 | O=C(NCc1ccccc1N1CCOCC1)c1cncc(-c2ccc(Cl)cc2)c1 | 32 nM | 10 nM | 120 nM | 130 nM |  |  | 
18 | Cc1cc(C)cc(NC(=O)c2csc(-c3ccc(OC(F)(F)F)cc3)n2)c1 | 400 nM | 51 nM |  | 380 nM | > 30 | > 30 | microsomal CLint [23]: > 300 µL/min/mg; microsomal CLint [12]: > 300 µL/min/mg
19 | Cc1cc(C)cc(NC(=O)c2ccnc(-c3ccc(OC(F)(F)F)cc3)c2)c1 | 11000 nM | 780 nM |  |  | > 30 | > 30 | 
20 | Cc1cc(C)cc(NC(=O)c2cncc(-c3ccc(F)cc3)c2)c1 | 1900 nM | 100 nM |  | 210 nM | > 30 | > 30 | 
21 | Cc1cc(C)cc(NC(=O)c2nc(-c3ccc(OC(F)(F)F)cc3)no2)c1 | 870 nM | 470 nM |  | 820 nM | > 30 | > 30 | 
22 | CCOc1ncccc1CNC(=O)c1cncc(-c2ccc(Cl)cc2)c1 | 88 nM | 7 nM | 670 nM | 32 nM |  |  | 
23 | COc1cc(NC(=O)c2ccc(-c3ccc(Cl)cc3)o2)cc(OC)c1 |  |  |  | 125 nM | 100 |  | bioavailability [2]: 10%; solubility [7]: < 0.1 µg/mL
24 | O=C(NCc1cccnc1Cl)c1cncc(-c2ccc(Cl)cc2)c1 | 680 nM | 140 nM | 18000 nM | 560 nM |  |  | 
25 | O=C(NCc1cccnc1N1CCOCC1)c1cncc(-c2ccc(Cl)cc2)c1 | 340 nM | 87 nM | 1600 nM | 98 nM |  |  | solubility [7]: > 50 µg/mL
26 | Cc1cc(C)cc(NC(=O)c2cncc(-c3ccc(OC(F)(F)F)cc3)c2)c1 | 530 nM | 26 nM |  | 97 nM | > 30 | > 30 | 
